For experiment [1], the target named is E3 ubiquitin-protein ligase Mdm2 (Homo sapiens, UniProt Q00987). Kind of experiment: enhancers of MDM2-luciferase reporter signal, concentration-effect titration, project on inhibitors of MDM2 ubiquitin ligase, cellular assay, luminescent readout, 384-well plate format (AID 1394).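 Note: MDM2 E3 inhibitors raise luminescence so EC50 is for signal enhancement.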 It is filed as functional. On the technique in general: In a reporter assay the amount or activity of a reporter protein is the signal.

For experiment [2], the target named is T1, Mannose-6-phosphate isomerase (Homo sapiens, UniProt P34949).
T1 sequence (P34949 whole entry): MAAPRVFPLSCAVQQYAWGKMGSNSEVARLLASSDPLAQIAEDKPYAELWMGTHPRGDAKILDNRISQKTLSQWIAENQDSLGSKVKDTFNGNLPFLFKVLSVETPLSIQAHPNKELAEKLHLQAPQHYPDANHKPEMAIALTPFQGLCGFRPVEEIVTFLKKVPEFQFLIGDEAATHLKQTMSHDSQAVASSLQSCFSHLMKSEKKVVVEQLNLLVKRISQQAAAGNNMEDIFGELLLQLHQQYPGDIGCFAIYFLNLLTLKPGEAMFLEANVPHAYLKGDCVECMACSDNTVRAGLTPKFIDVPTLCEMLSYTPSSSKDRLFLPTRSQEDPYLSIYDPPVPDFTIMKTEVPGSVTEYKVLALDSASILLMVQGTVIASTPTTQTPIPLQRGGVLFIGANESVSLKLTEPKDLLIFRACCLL
The experiment in a line: human PMI inhibitors, high substrate, primary screen, biochemical, fluorescence intensity, high mannose 6-phosphate (AID 1220).

The target in experiment [3] is T2, Apoptotic protease-activating factor 1 (Homo sapiens, UniProt O14727).
T2 sequence (O14727 whole entry): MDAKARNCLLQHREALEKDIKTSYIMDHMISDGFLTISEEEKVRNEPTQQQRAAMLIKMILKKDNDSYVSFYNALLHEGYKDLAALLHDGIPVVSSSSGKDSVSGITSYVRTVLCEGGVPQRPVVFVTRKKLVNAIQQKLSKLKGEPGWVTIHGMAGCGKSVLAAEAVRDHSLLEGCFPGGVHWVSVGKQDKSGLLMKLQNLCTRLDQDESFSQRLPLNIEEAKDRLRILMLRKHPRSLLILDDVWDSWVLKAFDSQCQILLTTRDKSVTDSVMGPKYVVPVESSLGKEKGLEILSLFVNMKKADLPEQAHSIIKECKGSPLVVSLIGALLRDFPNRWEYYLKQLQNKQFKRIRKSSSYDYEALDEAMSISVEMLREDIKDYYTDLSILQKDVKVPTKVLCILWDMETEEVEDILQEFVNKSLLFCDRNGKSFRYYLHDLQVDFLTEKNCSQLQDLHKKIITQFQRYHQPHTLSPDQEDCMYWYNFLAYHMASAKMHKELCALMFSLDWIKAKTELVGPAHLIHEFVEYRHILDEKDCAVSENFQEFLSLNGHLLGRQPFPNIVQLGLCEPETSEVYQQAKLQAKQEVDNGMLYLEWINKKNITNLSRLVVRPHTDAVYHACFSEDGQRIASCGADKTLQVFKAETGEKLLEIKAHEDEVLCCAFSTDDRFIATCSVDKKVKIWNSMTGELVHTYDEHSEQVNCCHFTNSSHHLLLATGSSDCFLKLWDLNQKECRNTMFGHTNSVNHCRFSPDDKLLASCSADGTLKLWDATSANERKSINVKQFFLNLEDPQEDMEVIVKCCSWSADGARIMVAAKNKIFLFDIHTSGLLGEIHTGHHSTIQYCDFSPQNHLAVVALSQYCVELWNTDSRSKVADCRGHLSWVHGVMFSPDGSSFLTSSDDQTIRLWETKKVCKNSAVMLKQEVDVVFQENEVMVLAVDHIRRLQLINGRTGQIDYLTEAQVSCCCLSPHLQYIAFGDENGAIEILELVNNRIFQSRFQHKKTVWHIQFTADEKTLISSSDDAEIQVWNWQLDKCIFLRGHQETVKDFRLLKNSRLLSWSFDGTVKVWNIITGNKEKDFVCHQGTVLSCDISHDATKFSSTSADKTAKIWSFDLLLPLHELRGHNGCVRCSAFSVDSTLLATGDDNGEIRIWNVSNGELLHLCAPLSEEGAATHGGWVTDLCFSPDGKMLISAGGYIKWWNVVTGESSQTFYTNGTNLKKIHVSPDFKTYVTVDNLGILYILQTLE
It is filed as functional.

Experiment [4] has as its target T1, Mannose-6-phosphate isomerase. Kind of experiment: inhibitors of human PMI, primary screen, biochemical, fluorescence intensity, coupled assay (AID 1209).
The nature of experiment [5]: THP-1 cell cytotoxicity, dose response, cytotoxicity control for Vif-APOBEC3G degradation inhibitor project, THP-1 cells (AID 1117359). The following applies: Human immunodeficiency virus 1, THP-1. It is filed as functional.
Experiment [6] in a line: Luminescence Cell-Based Dose Response to Identify Activators of 5'UTR Stem-Loop Driven Prion Protein mRNA Translation in H4-C Neuroglioblastoma Cells. [Related pubchem assays: 1829 (Project Summary), 1814 (Primary HTS)]. It is filed as functional.
Experiment [7] in a line: Luminescence Cell-Based Dose Response HTS to Identify Activators of Luciferase Translation or Activity in H4 […] Cells. [Related pubchem assays: 1829 (Project Summary), 1814 (Primary HTS)]. It is filed as functional.
Experiment [8] concerns H4. Kind of experiment: Luminescence Cell-Based Dose Response HTS to Identify Activators of 5'UTR Stem-Loop Driven Prion Protein mRNA Translation in H4 Neuroglioblastoma Cells. [Related pubchem assays: 1829 (Project Summary), 1814 (Primary HTS)]. The format is functional. The following applies: Homo sapiens.
Experiment [9] can be described thus: Luminescence Cell-Based Dose Response to Identify Activators of Luciferase Translation or Activity in H4-C Neuroglioblastoma Cells. [Related pubchem assays: 1829 (Project Summary), 1814 (Primary HTS)]. The format is functional.
Experiment [10] in a line: Luminescence Cell-Based Dose Confirmation to Identify Activators of 5'UTR Stem-Loop Driven Alpha-Synuclein mRNA Translation in H4 Neuroglioblastoma Cells. [Related pubchem assays: 1829 (Project Summary), 1814 (Primary HTS)]. It is filed as functional.
For experiment [11], the target named is Voltage-gated inwardly rectifying potassium channel KCNH2 (Homo sapiens, UniProt Q12809). Kind of experiment: hERG protection from proarrhythmic block, potency, dose response, cell-based, thallium flux (AID 2121). The format is ADME.
Experiment [12] has as its target T3, Aryl hydrocarbon receptor (Homo sapiens, UniProt P35869).
T3 sequence (P35869 whole entry): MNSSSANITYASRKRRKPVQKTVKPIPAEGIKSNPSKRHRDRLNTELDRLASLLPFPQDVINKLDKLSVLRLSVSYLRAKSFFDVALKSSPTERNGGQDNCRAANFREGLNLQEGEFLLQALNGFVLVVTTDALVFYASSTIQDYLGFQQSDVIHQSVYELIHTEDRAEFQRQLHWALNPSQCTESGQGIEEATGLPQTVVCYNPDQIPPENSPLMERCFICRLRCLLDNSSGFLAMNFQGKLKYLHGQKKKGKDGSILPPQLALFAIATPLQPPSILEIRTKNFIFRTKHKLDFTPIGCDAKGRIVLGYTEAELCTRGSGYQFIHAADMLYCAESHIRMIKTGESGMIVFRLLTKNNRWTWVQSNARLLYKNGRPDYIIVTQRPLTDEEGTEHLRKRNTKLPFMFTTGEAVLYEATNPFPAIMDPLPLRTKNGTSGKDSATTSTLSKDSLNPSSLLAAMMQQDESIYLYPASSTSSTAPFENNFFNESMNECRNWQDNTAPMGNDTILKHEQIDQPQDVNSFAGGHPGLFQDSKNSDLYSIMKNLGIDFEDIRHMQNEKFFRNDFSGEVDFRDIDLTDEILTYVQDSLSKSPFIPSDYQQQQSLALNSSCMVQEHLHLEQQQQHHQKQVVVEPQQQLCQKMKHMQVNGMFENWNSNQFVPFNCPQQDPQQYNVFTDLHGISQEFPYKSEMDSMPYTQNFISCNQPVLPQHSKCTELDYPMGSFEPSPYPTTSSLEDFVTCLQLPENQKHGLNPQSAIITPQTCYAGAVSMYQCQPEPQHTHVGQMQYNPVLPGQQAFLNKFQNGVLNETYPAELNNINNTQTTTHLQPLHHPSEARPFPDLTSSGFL
Kind of experiment: Luminescence-based cell-based high throughput dose response assay for activators of the Aryl Hydrocarbon Receptor (AHR). [Related pubchem assays: 2796 (Primary screen (AHR activators in singlicate)), 2845 (Confirmation screen (AHR activators in triplicate)), 434939 (Counterscreen (PXR activators in triplicate)), 2804 (Summary (AHR activators))]. The format is ADME. (Counterscreens check selectivity or assay interference.)

Experiment [13] deals with Sphingosine 1-phosphate receptor 2 (Homo sapiens, UniProt O95136). The experiment in a line: Dose Response Cell Based Assay for Antagonists of the S1P2 Receptor. [Related pubchem assays: 856, 736 ]. The format is functional.
The test system of experiment [14] is Streptococcus sp. 'group A'. Kind of experiment: growth inhibition of control SK(-) GAS strain, dose response, counter-screen for streptokinase expression inhibitor project, luminescence, kanamycin, BacTiterGlo, confirmation (AID 1900). It is filed as functional, organism-based.
Experiment [15] can be described thus: inhibitors of intracellular T. cruzi replication, confirmation, NIH3T3 host cells, beta-gal luminescence (AID 2044).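 Note: intracellular parasites grown in NIH/3T3 mouse fibroblasts as host cells; luminescent beta-galactosidase reporter signal from transgenic T. cruzi replicating inside host cells; inhibitors lower the luminescence signal.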 The format is functional, cell-based.
A short description of experiment [16]: cytotoxicity toward NIH3T3 fibroblasts, dose response, counter-screen, cell-based, ATP luminescence, mouse fibroblasts (AID 2010).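 Note: cells exposed to compound for about 90 hours before reading.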 It is filed as functional.
Experiment [17] relates to Streptococcus. The experiment in a line: Group A Streptococcus viability loss, dose response, counter-screen for streptokinase expression inhibitor project, luminescence, BacTiterGlo (AID 1915).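 Note: potency for reduction of bacterial viability or growth.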 The format is functional, organism-based.

Active and inactive are the calls of the source.

Sphingosine 1-phosphate receptor 2, sequence (O95136 whole entry): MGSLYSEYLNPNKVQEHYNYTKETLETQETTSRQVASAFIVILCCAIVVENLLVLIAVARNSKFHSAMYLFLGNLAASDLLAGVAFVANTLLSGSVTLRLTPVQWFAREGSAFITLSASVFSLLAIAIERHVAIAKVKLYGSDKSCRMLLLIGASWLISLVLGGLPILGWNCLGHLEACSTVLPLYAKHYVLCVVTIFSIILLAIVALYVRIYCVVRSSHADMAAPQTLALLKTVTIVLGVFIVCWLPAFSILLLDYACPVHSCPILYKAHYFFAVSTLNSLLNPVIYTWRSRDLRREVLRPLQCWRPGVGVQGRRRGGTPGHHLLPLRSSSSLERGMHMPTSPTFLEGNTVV
E3 ubiquitin-protein ligase Mdm2, sequence (Q00987 whole entry): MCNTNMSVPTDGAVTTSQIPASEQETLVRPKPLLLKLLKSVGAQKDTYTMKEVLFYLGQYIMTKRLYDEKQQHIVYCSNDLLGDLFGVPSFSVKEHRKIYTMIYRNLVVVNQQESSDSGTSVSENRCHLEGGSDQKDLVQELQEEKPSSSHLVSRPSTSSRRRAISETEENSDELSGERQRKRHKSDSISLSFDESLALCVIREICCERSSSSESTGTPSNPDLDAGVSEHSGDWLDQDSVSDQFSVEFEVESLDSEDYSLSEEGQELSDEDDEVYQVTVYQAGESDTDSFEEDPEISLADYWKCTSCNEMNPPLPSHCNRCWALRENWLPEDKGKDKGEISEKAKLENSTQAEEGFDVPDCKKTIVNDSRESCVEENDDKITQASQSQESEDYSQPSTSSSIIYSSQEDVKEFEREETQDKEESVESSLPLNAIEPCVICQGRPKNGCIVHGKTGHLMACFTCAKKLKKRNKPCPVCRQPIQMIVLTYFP
Voltage-gated inwardly rectifying potassium channel KCNH2, sequence (Q12809 whole entry): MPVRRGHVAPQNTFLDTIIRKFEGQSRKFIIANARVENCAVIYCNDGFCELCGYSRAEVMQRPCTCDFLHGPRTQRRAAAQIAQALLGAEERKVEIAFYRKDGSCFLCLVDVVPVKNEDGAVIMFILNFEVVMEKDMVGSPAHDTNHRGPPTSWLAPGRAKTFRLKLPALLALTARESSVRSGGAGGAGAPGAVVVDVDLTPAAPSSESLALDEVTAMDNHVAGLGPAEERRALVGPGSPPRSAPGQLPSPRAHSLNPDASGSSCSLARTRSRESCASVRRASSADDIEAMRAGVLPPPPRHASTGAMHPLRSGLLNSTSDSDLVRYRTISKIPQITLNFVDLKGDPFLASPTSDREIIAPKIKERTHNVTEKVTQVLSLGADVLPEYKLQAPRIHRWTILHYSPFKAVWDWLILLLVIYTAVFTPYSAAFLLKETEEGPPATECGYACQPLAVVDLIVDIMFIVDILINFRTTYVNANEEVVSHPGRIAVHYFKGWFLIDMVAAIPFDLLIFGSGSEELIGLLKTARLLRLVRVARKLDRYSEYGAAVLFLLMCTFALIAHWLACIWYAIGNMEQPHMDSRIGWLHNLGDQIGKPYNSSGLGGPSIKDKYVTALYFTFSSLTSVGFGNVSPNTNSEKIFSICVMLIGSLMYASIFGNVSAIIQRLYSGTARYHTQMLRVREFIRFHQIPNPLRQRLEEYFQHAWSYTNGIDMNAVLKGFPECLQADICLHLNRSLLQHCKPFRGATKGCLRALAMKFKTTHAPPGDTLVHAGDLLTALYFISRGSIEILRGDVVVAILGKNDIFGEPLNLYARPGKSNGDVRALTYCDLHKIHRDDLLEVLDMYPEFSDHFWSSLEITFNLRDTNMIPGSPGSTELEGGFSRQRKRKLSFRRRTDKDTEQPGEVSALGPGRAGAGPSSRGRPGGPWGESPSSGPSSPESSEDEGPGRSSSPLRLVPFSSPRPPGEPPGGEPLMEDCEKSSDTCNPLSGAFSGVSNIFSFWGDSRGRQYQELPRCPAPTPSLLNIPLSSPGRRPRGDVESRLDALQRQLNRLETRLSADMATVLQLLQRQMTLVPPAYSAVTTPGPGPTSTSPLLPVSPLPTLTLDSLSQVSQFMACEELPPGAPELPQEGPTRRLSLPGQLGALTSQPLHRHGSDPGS

For `Cc1nc(SCc2ccc(F)cc2)c([N+](=O)[O-])[nH]1`, the EC50 (in general, the concentration that produces a half-maximal response) in [1] is given as 7.19 µM (not active).
With `CCN1C(=O)c2cccc3c(N)ccc1c23`, the IC50 (commonly the point on the concentration scale where inhibition reaches its midpoint) was > 50 µM (not active) in experiment [2] and 44 µM (active) in [3].
As for `CC(C)NC[C@@H](O)c1ccc(O)c(O)c1`, the half-maximal inhibitory concentration (IC50) in experiment [4] and in experiment [2] was > 50 µM (not active) throughout. Further, in experiment [5], the 50% cytotoxic concentration (CC50) (as a rule, the concentration that lowers cell viability or growth by half) was > 40 µM (active).
As to `Cc1cc(NC(=O)c2noc3c2CCCCC3)no1`, the EC50 was 2.21 µM (active) in [6]; < 0.1 µM (inconclusive) in [7]; 32.2 µM (active) in experiment [8]; 0.648 µM (active) in experiment [9]; 5.07 µM (active) in experiment [10].
Take `O=C(NC(=S)Nc1cc(C(F)(F)F)ccc1Cl)c1ccccc1`: the EC50 in experiment [11] was 0.24 µM (active).
Turning to `CCC(=O)NC(=S)Nc1ccc(NC(=O)c2ccco2)c(Cl)c1`, the concentration giving a half-maximal response (EC50) in experiment [12] was 4.47 µM (active).
As to `Cn1c(-c2c(N)n(C3CCCC3)c3nc4ccccc4nc23)nc2ccccc21`, the IC50 in experiment [13] was 5.09 µM (active). Moreover, the EC50 in experiment [14] was 0.391 µM (active); in experiment [15] it was 0.905 µM (active); in experiment [16], > 30 µM (not active); in [17], 2.96 µM (active).
In the case of `C/C(=N/Nc1ccc(F)cc1)c1ccc(Cl)s1`, in experiment [12], the EC50 is 4.71 µM (active).
In the case of `FC(F)(F)c1cnc2c(-c3cccs3)c(-c3nc[nH]n3)sc2c1`, the IC50 in experiment [13] was 13.9 µM (not active).

These data come from ChEMBL document CHEMBL1201862, “PubChem BioAssay data set” (2004).
